Data on ten molecules can be found in US20170332666A1, “APPLICATION OF P-METHYL BENZOIC ACID OR SALTS THEREOF AS ADDITIVES FOR ANIMAL FEED” (priority 2015, published 2017).

In assay [1] the test system is weaned pigs. The experiment in a line: Growth promotion test of weaned pigs with additives in creep feed. To be noted: for Average daily weight gain / Diarrhea rate / Feed conversion ratio: 10 days. The assay is classed as in vivo, pig (Duroc×Landrace×Large White piglets). The source says: 140 weaned Duroc×Landrace×Large White piglets aged 28 days with similar body weight and further having an average body weight of 7.61 kg were divided into 14 groups, each with 10 pigs. After adding different concentrations of p-methyl benzoic acid or its calcium, sodium, potassium or zinc salt prepared by the embodiments disclosed herein into the conventional creep feed (excluding acidifying agent) of each group, the pigs were free feeding and drinking during the test period of 10 days, then to collect statistics of the weight gain and the feed conversion ratio as well as the diarrhea rate of test pig in each test group.

Assay [2] relates to grass carps. The experiment in a line: Growth promotion test in grass carps with additives in feed. The assay is classed as in vivo, grass carp. The note with it: for Feed conversion ratio (FCR) / Final weight / Survival rate SR / Weight gain rate: 3000 ppm in feed, 8 weeks. How it is done:
The test was performed on an aquaculture farm of Guangzhou Insighter Biotechnology CO., LTD, and the test fish is grass carp. Healthy and lively grass carps with the same species and sizes were fed in a large cage for 4 weeks, thereafter used for formal test, and the test system is a small floating cage. The small floating cage and temporary cages were placed in a 3500 square meter pond of the test field. Water depth of the pond was close to 1.5m, and the pond water is fully aerated. When testing, 160 grass carps starved for 1 day were randomly divided into 4 groups, each group with 4 replicates, and each replicate with 10 fish. After the whole weighing, the samples were randomly placed in 16 cages and fed with different test diets. The test diets were self-formulated in accordance with Table 5, and the basic diets of different test groups were adding different growth promoters respectively. The test adopted artificial feeding with food restriction, and the feed intake was adjusted once a week, the feeding levels of two groups were completely consistent (metered by the initial weight), the fish in each group is fed two times in one day (7:30 and 15:00). The test lasted for 8 weeks.

Assay [3] relates to meat-type ducks. As to the kind of experiment: Feeding test of meat-type ducks with additives in basic diet. The class given is in vivo, Cherry Valley ducks. The note with it: for Average daily weight gain / Average feed conversion ratio / Survival rate: 2000 ppm in basic diet, 30 days. The source says:
300 Cherry Valley ducks aged 1 day were divided into 6 groups with 50 ducks per group. After adding different concentrations of p-methyl benzoic acid or benzoic acid into the same basic diet (without antibiotics) of each group, the Cherry Valley ducks were free feeding and drinking, and continued feeding for 30 days, then to collect statistics of the production performance and the survival rate of test ducks, the test grouping and metered concentrations are shown in Table 3, and the results of the production performance are shown in Table 4.

Assay [4] relates to broilers. The experiment in a line: Growth promotion test of broilers with acidifying agents in complete formula feed. The class given is in vivo, broilers (chicken). To be noted: for Average daily weight gain / Feed conversion ratio: 2000 ppm in complete formula feed, 21 days; for Effect on daily gain (in words) / Effect on feed conversion ratio (in words): 2000 ppm. How it is done: 300 broilers (female seedlings) aged 1 day were divided into 6 groups in accordance with Table 6, and each group with 50 broilers. Acidifying agent with different type or concentration was added to the complete formula feed for chickens without any acidifying agents in each group, the broilers were free feeding and drinking during the test period of 21 days and then to collect statistics of the weight gain and the feed conversion ratio of test broiler in each test group.

Molecules are shown by their SMILES. Values joined by “and” are separate entries in the source; they are usually repeats but may differ in a detail not shown here. Equal entries are not always repeated.

Consider `O=P(O)(O)O` [phosphoric acid, reference compound], for which, in assay [1] (2000 ppm), the “Effect on diarrhea rate of test pigs (in words)” value (“Effect on diarrhea rate” below) is recorded as “no such effects” and the “Improvement of production performance (in words)” value (from here on “Improvement”) is given as “no such effects”. Further, in assay [1] (2000 ppm in creep feed), the “Average daily weight gain” value was 175.3 g, the Diarrhea rate was 27.0% and the Feed conversion ratio was found to be 1.66.
Turning to `O=C(O)c1ccccc1` [benzoic acid], in assay [2], the “Feed conversion ratio (FCR)” value is 1.46, the Final weight worked out at 585 g, the “Survival rate SR” value is on record as 100% and the Weight gain rate is 147%. In assay [3], the “Average daily weight gain” value was found to be 59.7, the “Average feed conversion ratio” value was 2.10 and the Survival rate is listed as 92%. Also, in assay [1] (2000 ppm in creep feed), the “Average daily weight gain” value was 192.3 g and 193.5 g; the Diarrhea rate is 22.0% and 23.0%; the Feed conversion ratio is 1.66 and 1.65. Also, in assay [1] (equal concentration (2000 ppm)), the “Rate of anti-diarrhea as compared to phosphoric acid or citric acid (in words)” value is recorded as “increased slightly”.
With `Cc1ccc(C(=O)[O-])cc1.[K+]` [potassium p-methyl benzoate], in assay [1] (2000 ppm in creep feed), the “Average daily weight gain” value is 205.8 g, the Diarrhea rate turned out to be 15.0% and the Feed conversion ratio was 1.58. Moreover, in assay [1] (10000 ppm to 20000 ppm), the “Effect on diarrhea rate” value is on record as “significantly reduce the diarrhea rate” and the “Improvement” value is listed as “significant dose effect”.
`Cc1ccc(C(=O)[O-])cc1.Cc1ccc(C(=O)[O-])cc1.[Zn+2]` [zinc p-methyl benzoate]: in assay [1] (2000 ppm in creep feed), the “Average daily weight gain” value is reported as 201.3 g, the Diarrhea rate amounted to 15.0% and the Feed conversion ratio was determined as 1.60.
`Cc1ccc(C(=O)O)cc1` [p-methyl benzoic acid]: in assay [4], the “Average daily weight gain” value is recorded as 24.5 g and the Feed conversion ratio is on record as 1.76. In assay [3], the “Production performance and survival rate (in words)” value is “greatly improved”; the Survival rate amounted to 100%. In assay [1] (2000 ppm), the “Effect on diarrhea rate” value is given as “significantly reduce the diarrhea rate” and the “Improvement” value is recorded as “significant dose effect”. Moreover, in assay [1] (10000 ppm in creep feed), the “Average daily weight gain” value was determined as 215.8 g, the Diarrhea rate turned out to be 11.0% and the Feed conversion ratio was found to be 1.51. Besides, in assay [1] (10000 ppm to 20000 ppm), the “Effect on diarrhea rate” value is recorded as “significantly reduce the diarrhea rate” and the “Improvement” value is on record as “significant dose effect”. In addition, in assay [1] (20000 ppm in creep feed), the “Average daily weight gain” value came out at 221.4 g, the Diarrhea rate is 9.0% and the Feed conversion ratio is listed as 1.47.
With `O=CO` [formic acid, reference compound], in assay [3], the “Average daily weight gain” value is 58.6, the “Average feed conversion ratio” value turned out to be 2.11 and the Survival rate is given as 93%. Besides, in assay [1] (2000 ppm in creep feed), the “Average daily weight gain” value is 173.4 g, the Diarrhea rate is reported as 25.0% and the Feed conversion ratio came out at 1.65.
In the case of `Cc1ccc(C(=O)[O-])cc1.[Na+]` [sodium p-methyl benzoate], in assay [4], the “Effect on daily gain (in words)” value is “significantly increase the daily gain”, the “Effect on feed conversion ratio (in words)” value is “improve the feed conversion ratio”, the “Average daily weight gain” value came to 24.3 g and the Feed conversion ratio worked out at 1.79. In addition, in assay [1] (2000 ppm in creep feed), the “Average daily weight gain” value was determined as 203.7 g, the Diarrhea rate amounted to 17.0% and the Feed conversion ratio is given as 1.55. Further, in assay [1] (10000 ppm to 20000 ppm), the “Effect on diarrhea rate” value is “significantly reduce the diarrhea rate” and the “Improvement” value is “significant dose effect”.
As to `Cc1ccc(C(=O)[O-])cc1.Cc1ccc(C(=O)[O-])cc1.[Ca+2]` [calcium p-methyl benzoate], in assay [2], the “Growth promotion versus blank control group (in words)” value was “obvious effects on growth promotion”, the “Feed conversion ratio (FCR)” value is 1.40, the Final weight is listed as 612 g and the “Survival rate SR” value is reported as 100%. Moreover, the Weight gain rate in assay [2] came out at 157%. In addition, in assay [1] (2000 ppm), the “Effect on diarrhea rate” value was “significantly reduce the diarrhea rate” and the “Improvement” value is “significant dose effect”. Moreover, in assay [1] (2000 ppm in creep feed), the “Average daily weight gain” value is listed as 203.6 g, the Diarrhea rate came to 12.0% and the Feed conversion ratio is reported as 1.54. Also, in assay [1] (10000 ppm to 20000 ppm), the “Effect on diarrhea rate” value is recorded as “significantly reduce the diarrhea rate” and the “Improvement” value is recorded as “significant dose effect”.
Take `C/C=C/C=C/C(=O)O` [sorbic acid]: in assay [4], the “Effect on daily gain (in words)” value is on record as “no such effects”, the “Effect on feed conversion ratio (in words)” value was “no such effects”, the “Average daily weight gain” value is given as 19.9 g and the Feed conversion ratio is given as 1.89.
`O=C(O)CC(O)(CC(=O)O)C(=O)O` [citric acid, reference compound]: in assay [4], the “Effect on daily gain (in words)” value is “no such effects”, the “Effect on feed conversion ratio (in words)” value was “no such effects”, the “Average daily weight gain” value is 19.8 g and the Feed conversion ratio came out at 1.88. Also, in assay [2], the “Feed conversion ratio (FCR)” value is 1.47, the Final weight was 582 g, the “Survival rate SR” value stood at 100% and the Weight gain rate is listed as 147%. For the same molecule, in assay [1] (2000 ppm), the “Effect on diarrhea rate” value is “no such effects” and the “Improvement” value is on record as “no such effects”. In addition, in assay [1] (2000 ppm in creep feed), the “Average daily weight gain” value was 181.3 g and 180.4 g; the Diarrhea rate is 31.0% and 26.0%; the Feed conversion ratio was 1.67 and 1.68.
